Results taken from EPA's ToxValDB 9.5.
Several values for one entry are separate records, joined by “and”; a condition that tells them apart may be missing. Equal entries are not always repeated.

Columns and labels:
Rattus norvegicus [1] = settings: oral
Rattus norvegicus [2] = settings: reproduction developmental, duration: 43 days, oral, gavage, Sprague-Dawley
Rattus norvegicus [3] = settings: oral; remark: listed apart in the source
Rattus norvegicus [4] = settings: for LEL: uterotrophic, Active
Rattus norvegicus [5] = settings: oral; remark: listed apart in the source
Rattus norvegicus [6] = settings: oral; remark: listed apart in the source
Rattus norvegicus [7] = settings: repeat dose other; oral
Rattus norvegicus [8] = settings: short-term; duration: 20 days; oral; diet; F; musculoskeletal
Canidae = settings: chronic; duration: 6 months; oral; diet; M/F; Dog Other; Organ weight changes (adrenal and kidney)
Rattus norvegicus [9] = settings: subchronic; oral; gavage; M/F; Sprague-Dawley; Body Weight Changes: decrease + Blood Chemistry: BUN increase, Cho increase, Glu increase, TSH increase, T4 decrease, , LH increase, , …
[10] = reproduction developmental, M/F, degenerative cardiomyopathy
[11] = subchronic, duration: 90 days, diet, M/F, reduced hemoglobin concentration, lowered hematocrits, altered organ weight
[12] = subchronic, duration: 90 days, diet, M/F, reduced weight gain, food consumption increased relative liver weight
[13] = duration: 2 years, feed, M/F, Crl:CD(SD), reduced weight gain
[14] = short-term, duration: 20 days, M/F, rachitic bone

## BrCBr [Dibromomethane]
Rattus norvegicus [1]; short-term, duration: 28 days, drinking water, M/F, Sprague-Dawley, Hematologic
  NOAEL: 8.6 mg/kg-day
Rattus norvegicus [2]; F
  LOAEL: 500 mg/kg-day
  NOAEL: 150 mg/kg-day
Rattus norvegicus [2]; M
  LOAEL: 150 mg/kg-day
  NOAEL: 50 mg/kg-day
Rattus norvegicus [2]; generation: F1
  LOAEL: 500 mg/kg-day
  NOAEL: 150 mg/kg-day

## O=S(=O)(c1ccccc1)c1ccccc1 [Diphenylsulfone]
Rattus norvegicus [1]; subchronic, duration: 13 weeks, diet, M
  NOAEL: 8 mg/kg-day

## CCCN(CCC)C(=O)SCC [EPTC]
Rattus norvegicus [3]; [10]
  LEL: 10 mg/kg-day
  NOEL: 2.5 mg/kg-day
Rattus norvegicus [4]; Hershberger, duration: 10 days, oral, gavage, Sprague-Dawley, anti-androgenic + no effect on PPS, AST or thyroid / decreasing trend significant for LABC
  NOEL: 125 mg/kg-day
Rattus norvegicus [5]; reproduction developmental, diet, Heart: Degenerative cardiomyopathy
  NOEL: 2.5 mg/kg-day

## Oc1c(Cl)cc(Cl)c2cccnc12.Oc1c(Cl)ccc2cccnc12.Oc1ccc(Cl)c2cccnc12 [Halquinols]
Rattus norvegicus [6]; chronic, duration: 1 years, Histopathological changes in the kidney
  NOAEL: 15 mg/kg-day

## CCCN(CCC)c1c([N+](=O)[O-])cc(C(C)C)cc1[N+](=O)[O-] [Isopropalin]
Rattus norvegicus [3]; [11]
  LEL: 72 mg/kg-day
  NOEL: 15 mg/kg-day
Rattus norvegicus [5]; subchronic, duration: 90 days, diet, Blood: Hematological effects + Organs, unspecified: Altered weights
  NOEL: 15 mg/kg-day

## C=C(C)C(=O)OC [Methyl methacrylate]
Rattus norvegicus [3]; chronic, drinking water, M/F, no effects
  NOAEL: 136 mg/kg-day
Rattus norvegicus [5]; chronic, duration: 24 months, drinking water, Kidney: Increased relative weight
  NOEL: 7.5 mg/kg-day

## CNc1ccccc1 [N-Methylaniline]
Rattus norvegicus [1]; short-term, duration: 28 days, gavage, M/F, CD, Hematologic, Immune
  NOAEL: 5 mg/kg-day

## CCCCN(CC)C(=O)SCCC [Pebulate]
Rattus norvegicus [5]; subchronic, diet, Blood: Increased clotting time
  NOEL: 5 mg/kg-day

## Brc1cc(-c2ccc(Br)c(Br)c2Br)cc(Br)c1Br [Polybrominated biphenyls (PBB)]
Rattus norvegicus [5]; chronic, duration: 25 weeks, gavage, Liver: Increased weight + Liver: Lesions
  LOAEL: 0.07 mg/kg-day

## CCCN(CC1CC1)c1c([N+](=O)[O-])cc(C(F)(F)F)cc1[N+](=O)[O-] [Profluralin]
Rattus norvegicus [5]; subchronic, diet, None Observed
  NOEL: 3 mg/kg-day

## CC(C)N(C(=O)CCl)c1ccccc1 [Propachlor]
Rattus norvegicus [3]; [12]
  LEL: 133 mg/kg-day
  NOEL: 13.3 mg/kg-day
Rattus norvegicus [5]; subchronic, duration: 90 days, diet, Whole body: Decreased weight gain
  NOEL: 13.3 mg/kg-day

## N#CCC#N [Propanedinitrile]
Rattus norvegicus [1]; subchronic, duration: 90 days, gavage, M/F, Crl:CD(SD) BR, hepatic
  NOAEL: 0.4 mg/kg-day

## [Na+].[O]=[V](=[O])[O-] [Sodium metavanadate]
Rattus norvegicus [7]
  LOAEL: 2.1 mg/kg-day
  NOAEL: 0.21 mg/kg-day
Rattus norvegicus [5]; subchronic, duration: 3 months, drinking water, Kidney: Impaired function
  NOAEL: 1.52 mg/kg-day

## CN[C@@H]1[C@H](O[C@H]2[C@H](O[C@H]3[C@H](O)[C@@H](O)[C@H](N=C(N)N)[C@@H](O)[C@@H]3N=C(N)N)O[C@@H](C)[C@]2(O)C=O)O[C@@H](CO)[C@H](O)[C@H]1O [Streptomycin A]
Rattus norvegicus [6]; [13]
  LOEL: 10 mg/kg-day
  NOEL: 5 mg/kg-day

## [Cl-].[Cl-].[Sr+2] [Strontium chloride]
Rattus norvegicus [7]
  NOAEL: 263 mg/kg-day

## [Sr] [Strontium]
Rattus norvegicus [3]; [14]
  LOAEL: 380 mg/kg-day
  NOAEL: 190 mg/kg-day
Rattus norvegicus [5]; short-term, duration: 20 days, drinking water, Bone: Rachitic changes
  NOAEL: 190 mg/kg-day
Rattus norvegicus [8]
  NOAEL: 140 mg/kg-day

## Oc1cc(Cl)ccc1Oc1ccc(Cl)cc1Cl [Triclosan]
Rattus norvegicus [4]; duration: 3 days, oral
  LEL: 4.69 mg/kg-day and 7.5 mg/kg-day
Rattus norvegicus [4]; duration: 20 days, oral
  LEL: 150 mg/kg-day
Rattus norvegicus [5]; short-term, duration: 4 weeks, Whole body: Decreased weight
  NOEL: 500 mg/kg-day

## C=CC1(C)OC(=O)N(c2cc(Cl)cc(Cl)c2)C1=O (stereo not drawn) [Vinclozolin]
Canidae
  LEL: 7.5 mg/kg-day
  NOEL: 2.5 mg/kg-day
Rattus norvegicus [9]
  NOEL: < 3.12 mg/kg-day
Rattus norvegicus [4]; Hershberger, duration: 7 days, injection, subcutaneous, Wistar, Neither + significant delay in PPS and AST / epididymal wt reduced at 30 mg/kg / serum LH decreased at 10 mg/kg / increase in …
  NOEL: 30 mg/kg-day
Rattus norvegicus [4]; Hershberger, duration: 10 days, oral, gavage, Wistar, active + Antiandrogenic + anti-androgenic + ISR significant delay in PPS at 10 mg/kg / Monossori et al. significant delay in PPS and AST…
  NOEL: 30 mg/kg-day and 10 mg/kg-day
Rattus norvegicus [4]; Hershberger, duration: 10 days, oral, gavage, wistar, active + Antiandrogenic + anti-androgenic + ISR significant delay in PPS at 10 mg/kg / Monossori et al. significant delay in PPS and AST…
  LOEL: 10 mg/kg-day and 30 mg/kg-day

## [PH]=[Zn].[PH]=[Zn].[Zn] [Zinc phosphide (Zn3P2)]
Rattus norvegicus [3]; subchronic, F, reduced food intake and body weight
  LOAEL: 3.48 mg/kg-day
Rattus norvegicus [5]; subchronic, duration: 13 weeks, diet, Whole body: Decreased food intake + Whole body: Decreased weight
  LOAEL: 3.48 mg/kg-day

## CCCCCC [n-Hexane]
Rattus norvegicus [1]; subchronic, duration: 8 weeks, gavage, M, Wistar, Nervous
  LOAEL: 785 mg/kg-day
